{
  "source": "ChEMBL document CHEMBL4052692",
  "about": "“Synthesis and biological activity of peptide proline-boronic acids as proteasome inhibitors” (Bioorg Med Chem, 2017)",
  "key": {"MGC-803": {"test_system": "MGC-803", "assay": "Cytotoxicity against human MGC803 cells after 72 hrs by MTT assay", "type": "functional, cell-based", "details": "MGC-803, 72 h"}, "[1]": {"assay": "Cytotoxicity against human 95-D cells after 72 hrs by MTT assay", "type": "functional, cell-based"}, "HCT-116": {"test_system": "HCT-116", "assay": "Cytotoxicity against human HCT116 cells after 72 hrs by MTT assay", "type": "functional, cell-based", "details": "HCT-116, 72 h"}, "HL-60": {"test_system": "HL-60", "assay": "Cytotoxicity against human HL60 cells after 72 hrs by MTT assay", "type": "functional, cell-based", "details": "HL-60, 72 h"}, "A549": {"test_system": "A549", "assay": "Cytotoxicity against human A549 cells after 72 hrs by MTT assay", "type": "functional, cell-based", "details": "A549, 72 h"}, "MDA-MB-231": {"test_system": "MDA-MB-231", "assay": "Cytotoxicity against human MDA-MB-231 cells after 72 hrs by MTT assay", "type": "functional, cell-based", "details": "MDA-MB-231, 72 h"}, "[2]": {"biological_target": "T1, Proteasome Macropain subunit MB1 (Homo sapiens, UniProt P28074)", "T1 sequence (P28074 whole entry)": "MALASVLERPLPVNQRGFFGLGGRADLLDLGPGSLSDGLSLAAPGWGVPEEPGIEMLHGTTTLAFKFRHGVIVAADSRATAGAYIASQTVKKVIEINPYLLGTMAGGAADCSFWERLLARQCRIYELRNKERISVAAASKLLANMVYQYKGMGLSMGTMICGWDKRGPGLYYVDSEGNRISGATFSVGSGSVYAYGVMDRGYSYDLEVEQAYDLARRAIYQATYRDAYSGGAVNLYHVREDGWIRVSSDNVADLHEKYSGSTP", "assay": "Inhibition of chymotrypsin-like activity of 20S proteasome in human HL60 cells using Suc-LLVYaminoluciferin as substrate pretreated for 2 hrs followed by substrate addition by […]", "type": "cell-based"}, "[3]": {"assay": "Selectivity ratio of IC50 for trypsin-like activity of 20S proteasome in human HL60 cells to IC50 for chymotrypsin-like activity of 20S proteasome in human HL60 cells"}, "[4]": {"assay": "Selectivity ratio of IC50 for PGPH-like activity of 20S proteasome in human HL60 cells to IC50 for chymotrypsin-like activity of 20S proteasome in human HL60 cells"}},
  "data": [
    {"smiles": "O=C(N[C@@H](Cc1ccc2ccccc2c1)C(=O)N1CCC[C@H]1B(O)O)OCc1ccccc1", "values": [
      {"measurement": "IC50", "setting": "MGC-803", "value": "> 10000", "unit": "nM"}
    ]},
    {"smiles": "O=C(N[C@@H](Cc1ccccc1)C(=O)N1CCC[C@H]1B(O)O)N1CCc2ccccc2C1", "values": [
      {"measurement": "IC50", "setting": "MGC-803", "value": "> 10000", "unit": "nM"}
    ]},
    {"smiles": "CC(C)C[C@H](NC(=O)OCc1ccccc1)C(=O)N[C@@H](CC(C)C)C(=O)N1CCC[C@H]1B(O)O", "values": [
      {"measurement": "IC50", "setting": "MGC-803", "value": 10.9, "unit": "nM"}
    ]},
    {"smiles": "CC(C)C[C@H](NC(=O)c1cnccn1)C(=O)N[C@@H](CC(C)C)C(=O)N1CCC[C@H]1B(O)O", "values": [
      {"measurement": "IC50", "setting": "MGC-803", "value": 4430, "unit": "nM"}
    ]},
    {"smiles": "CC(C)C[C@H](NC(=O)N1CCc2ccccc2C1)C(=O)N[C@@H](Cc1ccc2ccccc2c1)C(=O)N1CCC[C@H]1B(O)O", "values": [
      {"measurement": "IC50", "setting": "MGC-803", "value": 1430, "unit": "nM"}
    ]},
    {"smiles": "O=C(N[C@@H](Cc1ccccc1)C(=O)N1CCC[C@H]1B(O)O)N1CCOCC1", "values": [
      {"measurement": "IC50", "setting": "MGC-803", "value": "> 10000", "unit": "nM"}
    ]},
    {"smiles": "O=C(N[C@@H](Cc1ccc(O)cc1)C(=O)N1CCC[C@H]1B(O)O)[C@H](Cc1ccccc1)NC(=O)N1CCc2ccccc2C1", "values": [
      {"measurement": "IC50", "setting": "MGC-803", "value": 7640, "unit": "nM"}
    ]},
    {"smiles": "CN(Cc1ccccc1)C(=O)N[C@@H](Cc1ccc2ccccc2c1)C(=O)N1CCC[C@H]1B(O)O", "values": [
      {"measurement": "IC50", "setting": "MGC-803", "value": 7480, "unit": "nM"}
    ]},
    {"smiles": "CC(C)C[C@H](NC(=O)c1cnccn1)C(=O)N[C@@H](Cc1ccc2ccccc2c1)C(=O)N1CCC[C@H]1B(O)O", "values": [
      {"measurement": "IC50", "setting": "MGC-803", "value": 29.6, "unit": "nM"}
    ]},
    {"smiles": "O=C(N[C@@H](Cc1ccc2ccccc2c1)C(=O)N1CCC[C@H]1B(O)O)[C@H](Cc1ccccc1)NC(=O)N1CCc2ccccc2C1", "values": [
      {"measurement": "IC50", "setting": "MGC-803", "value": 2420, "unit": "nM"}
    ]},
    {"smiles": "O=C(N[C@@H](Cc1ccccc1)C(=O)N1CCC[C@H]1B(O)O)[C@H](Cc1ccccc1)NC(=O)N1CCc2ccccc2C1", "values": [
      {"measurement": "IC50", "setting": "MGC-803", "value": 4170, "unit": "nM"}
    ]},
    {"smiles": "O=C(N[C@@H](Cc1ccc2ccccc2c1)C(=O)N1CCC[C@H]1B(O)O)N1CCc2ccccc2C1", "values": [
      {"measurement": "IC50", "setting": "MGC-803", "value": 5360, "unit": "nM"}
    ]},
    {"smiles": "CC(C)C[C@H](NC(=O)N(C)Cc1ccccc1)C(=O)N[C@@H](Cc1ccc2ccccc2c1)C(=O)N1CCC[C@H]1B(O)O", "values": [
      {"measurement": "IC50", "setting": "MGC-803", "value": 1650, "unit": "nM"}
    ]},
    {"smiles": "O=C(N[C@@H](Cc1ccccc1)C(=O)N[C@@H](Cc1ccc2ccccc2c1)C(=O)N1CCC[C@H]1B(O)O)c1cnccn1", "values": [
      {"measurement": "IC50", "setting": "MGC-803", "value": 110, "unit": "nM"}
    ]},
    {"smiles": "O=C(N[C@@H](Cc1ccccc1)C(=O)N[C@@H](Cc1ccc2ccccc2c1)C(=O)N1CCC[C@H]1B(O)O)OCc1ccccc1", "values": [
      {"measurement": "IC50", "setting": "MGC-803", "value": 150, "unit": "nM"}
    ]},
    {"smiles": "CC(C)C[C@H](NC(=O)[C@H](Cc1ccccc1)NC(=O)c1cnccn1)B(O)O", "note": "[BORTEZOMIB]", "values": [
      {"measurement": "IC50", "setting": "MGC-803", "value": "8 to 13.3", "unit": "nM"},
      {"measurement": "IC50", "setting": "[1]", "value": 38, "unit": "nM"},
      {"measurement": "IC50", "setting": "HCT-116", "value": 1, "unit": "nM"},
      {"measurement": "IC50", "setting": "HL-60", "value": 8, "unit": "nM"}
    ]},
    {"smiles": "CC(C)C[C@H](NC(=O)c1cnccn1)C(=O)N[C@@H](Cc1ccccc1)C(=O)N1CCC[C@H]1B(O)O", "values": [
      {"measurement": "IC50", "setting": "MGC-803", "value": 27.2, "unit": "nM"}
    ]},
    {"smiles": "CC(C)C[C@H](NC(=O)OCc1ccccc1)C(=O)N[C@@H](Cc1ccc2ccccc2c1)C(=O)N1CCC[C@H]1B(O)O", "values": [
      {"measurement": "IC50", "setting": "A549", "value": 5990, "unit": "nM"},
      {"measurement": "IC50", "setting": "MGC-803", "value": "9.76 to 10", "unit": "nM"},
      {"measurement": "IC50", "setting": "[1]", "value": 12, "unit": "nM"},
      {"measurement": "IC50", "setting": "HCT-116", "value": 69, "unit": "nM"},
      {"measurement": "IC50", "setting": "MDA-MB-231", "value": 7, "unit": "nM"},
      {"measurement": "IC50", "setting": "HL-60", "value": "< 1", "unit": "nM"},
      {"measurement": "IC50", "setting": "[2]", "value": 18, "unit": "nM"},
      {"measurement": "Ratio IC50", "setting": "[3]", "value": 92.2},
      {"measurement": "Ratio IC50", "setting": "[4]", "value": 69.4}
    ]},
    {"smiles": "CC(C)C[C@H](NC(=O)[C@H](Cc1ccccc1)NC(=O)N1CCc2ccccc2C1)C(=O)N1CCC[C@H]1B(O)O", "values": [
      {"measurement": "IC50", "setting": "MGC-803", "value": "> 10000", "unit": "nM"}
    ]},
    {"smiles": "O=C(N[C@@H](Cc1ccccc1)C(=O)N[C@@H](Cc1ccccc1)C(=O)N1CCC[C@H]1B(O)O)c1cnccn1", "values": [
      {"measurement": "IC50", "setting": "MGC-803", "value": 478, "unit": "nM"}
    ]},
    {"smiles": "O=C(N[C@@H](Cc1ccccc1)C(=O)N1CCC[C@H]1B(O)O)c1cnccn1", "values": [
      {"measurement": "IC50", "setting": "MGC-803", "value": "> 10000", "unit": "nM"}
    ]}
  ]
}
